Assay results: ChEMBL document CHEMBL1144222, “Distinctive molecular inhibition mechanisms for selective inhibitors of human 11beta-hydroxysteroid dehydrogenase type 1” (Bioorg Med Chem, 2008)

Target: 11-beta-hydroxysteroid dehydrogenase 1 (Homo sapiens, UniProt P28845)
Test: Inhibition of FLAG tagged human recombinant 11beta-HSD1 reductase activity expressed in Trichoplusia ni Hi5 cells
Type: cell-based, BTI-TN-5B1-4

Chain of 11-beta-hydroxysteroid dehydrogenase 1 (P28845 whole entry): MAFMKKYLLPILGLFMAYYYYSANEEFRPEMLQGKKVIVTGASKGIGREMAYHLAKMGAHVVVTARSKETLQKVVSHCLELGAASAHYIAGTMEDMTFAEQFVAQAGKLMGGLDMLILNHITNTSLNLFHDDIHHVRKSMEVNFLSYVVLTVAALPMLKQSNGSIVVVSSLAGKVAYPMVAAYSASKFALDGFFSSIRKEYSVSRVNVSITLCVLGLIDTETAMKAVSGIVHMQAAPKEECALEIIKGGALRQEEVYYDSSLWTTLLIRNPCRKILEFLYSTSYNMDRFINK

## CC(C)n1c(-c2ccc(OC(F)(F)F)cc2)nnc1C1(c2ccc(F)cc2)CC1
  IC50: 1.6 nM
